# Test results taken from ChEMBL document CHEMBL1149990, “1-(2-METHOXYPHENYL)-4-ALKYLPIPERAZINES: EFFECT OF THE N-4 SUBSTITUENT ON THE AFFINITY AND SELECTIVITY FOR DOPAMINE D4 RECEPTOR” (Bioorg Med Chem Lett, 1997).
# What was measured:
# [1] = molecular target: T1, Adrenergic receptor alpha-1 (Rattus norvegicus, UniProt P15823+P23944+P43140); assay: Displacement of [3H]prazosin from Alpha-1 adrenergic receptor of rat cerebral cortex; format: tissue-based
# T1 sequence (P15823 whole entry): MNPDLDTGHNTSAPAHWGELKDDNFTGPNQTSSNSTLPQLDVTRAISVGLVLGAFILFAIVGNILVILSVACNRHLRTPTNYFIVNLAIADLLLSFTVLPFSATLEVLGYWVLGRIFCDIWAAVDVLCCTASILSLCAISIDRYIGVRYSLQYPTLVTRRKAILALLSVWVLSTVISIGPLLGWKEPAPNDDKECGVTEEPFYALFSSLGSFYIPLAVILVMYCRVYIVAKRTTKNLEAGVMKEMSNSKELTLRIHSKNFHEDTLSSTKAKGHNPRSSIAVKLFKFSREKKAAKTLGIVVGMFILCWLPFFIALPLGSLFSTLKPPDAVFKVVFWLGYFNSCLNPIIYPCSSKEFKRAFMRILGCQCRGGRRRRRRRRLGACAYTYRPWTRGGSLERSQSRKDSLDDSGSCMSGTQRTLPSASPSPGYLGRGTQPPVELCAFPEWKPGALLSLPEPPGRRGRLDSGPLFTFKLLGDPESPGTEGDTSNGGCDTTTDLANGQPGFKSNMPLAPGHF
# T1 sequence (P23944 whole entry): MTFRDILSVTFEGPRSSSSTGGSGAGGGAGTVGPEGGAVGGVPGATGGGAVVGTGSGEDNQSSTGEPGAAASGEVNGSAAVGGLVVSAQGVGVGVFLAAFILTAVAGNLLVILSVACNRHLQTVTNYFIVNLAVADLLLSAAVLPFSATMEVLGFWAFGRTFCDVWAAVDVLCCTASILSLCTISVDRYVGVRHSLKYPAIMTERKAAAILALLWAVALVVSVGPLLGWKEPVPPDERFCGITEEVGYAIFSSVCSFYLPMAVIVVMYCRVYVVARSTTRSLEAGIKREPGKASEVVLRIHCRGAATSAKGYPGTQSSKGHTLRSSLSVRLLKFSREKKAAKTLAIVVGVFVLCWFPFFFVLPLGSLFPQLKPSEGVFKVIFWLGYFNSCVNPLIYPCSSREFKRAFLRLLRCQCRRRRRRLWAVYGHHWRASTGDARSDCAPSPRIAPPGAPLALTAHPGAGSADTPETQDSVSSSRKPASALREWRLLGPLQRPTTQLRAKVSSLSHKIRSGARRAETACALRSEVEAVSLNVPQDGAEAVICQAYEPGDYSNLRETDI
# T1 sequence (P43140 whole entry): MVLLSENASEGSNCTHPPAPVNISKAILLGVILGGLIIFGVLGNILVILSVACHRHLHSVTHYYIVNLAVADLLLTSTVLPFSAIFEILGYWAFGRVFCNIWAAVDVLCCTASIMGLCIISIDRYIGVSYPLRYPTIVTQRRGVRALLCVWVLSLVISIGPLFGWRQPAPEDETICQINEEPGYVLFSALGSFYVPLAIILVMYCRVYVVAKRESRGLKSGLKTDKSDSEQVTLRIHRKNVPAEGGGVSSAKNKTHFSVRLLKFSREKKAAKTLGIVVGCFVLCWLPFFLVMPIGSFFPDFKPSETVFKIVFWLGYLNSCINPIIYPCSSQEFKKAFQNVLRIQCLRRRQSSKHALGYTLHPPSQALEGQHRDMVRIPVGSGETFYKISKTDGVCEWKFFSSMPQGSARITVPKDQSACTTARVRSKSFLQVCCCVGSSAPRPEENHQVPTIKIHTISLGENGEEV
# D(4) dopamine receptor = molecular target: T2, D(4) dopamine receptor (Homo sapiens, UniProt P21917); assay: Displacement of [3H]YM-09151-2 from human Dopamine receptor D4.2 expressed in baculovirus Sf9 cells
# T2 sequence (P21917 whole entry): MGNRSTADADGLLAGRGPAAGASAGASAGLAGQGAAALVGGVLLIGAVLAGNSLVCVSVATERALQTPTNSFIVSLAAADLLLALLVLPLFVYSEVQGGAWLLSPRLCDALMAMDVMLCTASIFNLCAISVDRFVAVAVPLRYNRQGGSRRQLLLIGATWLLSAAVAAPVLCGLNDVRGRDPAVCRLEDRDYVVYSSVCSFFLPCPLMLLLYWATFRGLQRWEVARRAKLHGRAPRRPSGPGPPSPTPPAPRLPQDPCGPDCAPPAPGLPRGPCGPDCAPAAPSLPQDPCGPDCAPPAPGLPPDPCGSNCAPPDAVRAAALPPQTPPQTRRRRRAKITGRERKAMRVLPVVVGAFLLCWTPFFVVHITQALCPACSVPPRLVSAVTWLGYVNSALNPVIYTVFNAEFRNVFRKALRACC
SMILES,Ki [1],Ki (D(4) dopamine receptor)
COc1cccc(C(=O)CCCCN2CCN(c3ccccc3OC)CC2)c1,41 nM,43 nM
COc1cccc(C(=O)CCCN2CCN(c3ccccc3OC)CC2)c1,19 nM,1.7 nM
COc1cc(N)c(Cl)cc1C(=O)NCCN1CCN(c2ccccc2OC)CC1,8 nM,19 nM
COc1ccccc1N1CCN(Cc2cccc(-c3ccccc3)c2)CC1,–,8 nM

# Next, values leading:
Ki [1],Ki (D(4) dopamine receptor),SMILES
–,22 nM,COc1ccccc1N1CCN(CCNC(=O)C2CCCc3c(OC)cccc32)CC1 (stereo not given)
1 nM,–,COc1ccccc1N1CCN(CCCC2CCCc3c(OC)cccc32)CC1 (stereo not given)
125 nM,67 nM,COc1ccccc1N1CCN(CCC(=O)NC2CCCc3c(OC)cccc32)CC1 (stereo not given)
65 nM,43 nM,COc1ccccc1N1CCN(CCCCC2CCCc3c(OC)cccc32)CC1 (stereo not given)
70 nM,49 nM,COc1ccccc1N1CCN(CCCNC(=O)C2CCCc3cccc(OC)c32)CC1 (stereo not given)
